The values that follow come from US8193175B2, “Ruthenium complexes for treating cancers” (Universite de Strasbourg, priority 2004, dated 2012).

One assay deals with RDM4 line. Briefly: Proliferation test (UptiBlue) on RDM4 line. The settings on record: 72 hours. The class given is cell-based, mouse. The protocol:
The products are tested on different cell lines. The cells used are RDM4 from a murine T lymphoma and a MOLT-4 line originating from an acute lymphoblastic leukemia. These cancer lines both express the p53 protein, unlike the HL-60 cells from a human promyelocytary leukemia where, following deletion of its gene, p53 is absent.
All of these cells are cultivated in RPMI 1640-Glutamax, supplemented by 10% calf foetal serum heat inactivated at 56° C. for 30 minutes, 1 mM sodium pyruvate, 1 mM non-essential amino acids and 50 μg/mL gentamycine (Life Technologies, Cergy Pontoise, France). The cultures are kept in an incubator at 37° C. with a moisture saturated atmosphere, with 5% CO2.
This test uses the UptiBlue reagent (Interchim, Montluçon, France), metabolised by the living cells. The cells are incubated on plates with 96 wells with 10^4 cells/well (200 μL) with the product and cultivated for 72 hours. Then, 20 μL UptiBlue are added to each well. After 3 hours incubation, the fluorescence of the samples contained in the plates is measured at 590 nm (excitation at 560 nm), using a Fluorolite 1000 microplate reader (Dynex technologies, Issy-Les-Moulineaux, France).
The potential anti-cancers are first of all selected on the RDM4 line. The effect of the different organo-ruthenium compounds upon the cell viability is firstly determined by a proliferation test as a function of the product concentration. The activity of the compounds derived from Ru is compared to that of cisplatinum. The exposure of the RDM4 cells to these derivatives is translated by a dose-dependent reduction in their proliferation. Therefore, the effect is dependent upon the organic complex which surrounds the Ru nucleus. The inhibition concentration of the growth of 50% of the cells (IC50) is determined for each of the products. […] The ruthenium derivatives showing an excessive IC50 (>50 μM) were eliminated from the biological study.

The subject of another assay is RDM4. Nature of the assay: Apoptosis by marking with Annexin-V on RDM4. The class given is cell-based, mouse. The protocol:
Cell death is measured by a first specific marking of the apoptosis. The externalisation of the anionic phospholipids, normally located on the inner layer of the plasmic membrane, is one of the precocious markers of apoptosis (Martin et al, 1996). Annexin-V is a protein which fixes specifically onto the phosphatidylserines in the presence of calcium. When Annexin-V is coupled to a fluorochrome, it makes it possible to quantify the apoptotic cells by flux cytometry.
The control cells are treated with the equivalent volume of solvent (ethanol). […] After 72 hrs, the apoptosis rate is still as low as that of the control cells. On the other hand, with treatment at 45 μM, this rate already reaches 70% at 24 hrs and exceeds 99% after 48 hrs—a sign of significant apoptosis induction.

For the next assay, the system named is A172 glioblastoma cells. Briefly: Nucleus morphology and caspase 3 activation in A172 cells. The class given is cell-based, human. The settings on record: cisplatinum 15 μM, CDR6 15 μM, CDR9 15 μM. From the text: FIG. 2: A—The A172 cells were cultivated on glass slides. […] The cells were then fixed in 4% paraformaldehyde, permeabilised with 0.1% NP40 and marked with Hoechst dye (blue) and the anti-p20 antibody (active fragment of caspase 3, in red). The cells were then observed under the fluorescence microscope. B—Graphic representation of the number of cells with an apoptotic, fragmented or condensed nucleus. The bars are an average of two slides from one experiment representative of 3 carried out. C—In parallel, proteic extracts were prepared from cells treated with various drugs (cisplatinum 15 μM; CDR225 μM; CDR615 μM; CDR915 μM) and following denaturation the extracts were deposited on a !0% SDS-Page gel. After migration, the proteins were transferred onto nitrocellulose (Biorad, 0.2 μm) and the p20 fragment of the caspase 3 was detected by Western blot with an anti-p20 antibody (1/1000, R&D System).
The first step towards characterising the anticancerous effects of the compounds derived from ruthenium consists of testing their activity on tumoral lines kept in culture and comparing these effects on lines which have different characteristics as regards resistance to the anticancer treatments. Two lines of human glioblastomas (A172, HS683) and two lines of neuroblastomas (N2A and SH5Y) were used in order to test the cytostatic effects of the compounds according to the invention. Cisplatinum was chosen as the cytotoxic comparison agent. In a first approach, an MTT test was used to measure the activity of a mitochondrial enzyme, and this gives an estimate of the number of cells. Then, the cytotoxic effects of the compounds according to the invention were characterised in greater detail by analysing the morphology of the nucleus and the activation of caspase 3—two markers of cell apoptosis.

The subject of a further assay is A172 cells. Briefly: Western blot of p53, p73, p21 and Bax in A172 cells. The class given is cell-based, human. The protocol: FIG. 3: Detection of p53 and p73 in A172 cells treated with CDR. The A172 cells were treated with the concentrations indicated (2, 5 or 10 μM) with the various compounds and for the periods of time indicated (24 hrs or 6 hrs). The proteins were extracted with a lysis buffer and were separated on 10% SDS-Page gel. After being transferred onto nitrocellulose, the p53 and p73 proteins were detected by Western blot using anti-p53 (pAb1801) and anti-p73 (1/200, Ab2, Oncogene) antibody.
FIG. 4: Detection of p21 and Bax in A172 cells treated with CDR. The A172 cells were treated with the various compounds (10 μM) for 24 hrs. The proteins were extracted with a lysis buffer and were separated on 10% SDS-Page gel. After being transferred onto nitrocellulose, the p21 and Bax proteins were detected by Western blot using anti-p21 (1/200, Oncogene) and anti-Bax (1/2000, Santacruz) antibody.
(§1) For the purpose of determining the molecular mechanisms used by the ruthenium derivatives and comparing them with those induced by cisplatinum, the expression of p53, p73 p21 and bax in the A172 and HCT116 lines was analysed.
In general terms: In western blotting, separated proteins are transferred to a membrane and probed.

Another assay concerns HCT116 cells. Briefly: Western blot of p53, p21 and phospho-histone H3 in HCT116 cells. The settings on record: 10 μM. The class given is cell-based, human. The protocol:
FIG. 5: Detection of p53, p21 and of the phosphorylation of histone H3 in the HCT116 cells treated with CDR. The HCT116 cells were treated with the various compounds (10 μM) and for the periods of time indicated (24 hrs or 6 hrs). The proteins were extracted with a lysis buffer and were separated on 10% SDS-Page gel. After being transferred onto nitrocellulose, the p53, p21 proteins and histone H3 were detected by Western blot using anti-p53 (pAb1801), anti-p21 (1/200, Oncogene) antibody and anti-phospho serine 10 of histone H3 (1/2000, Santacruz).
as §1

One may read the IC50 as the concentration that inhibits the measured activity by half. A high value points to weaker potency in that assay. In the assay on RDM4 line, “[Ru(C6H4-2-C5H4N)(phen)(NCMe)2]PF6 [Compound 11]” returned an IC50 of 11 µM. The “apoptosis rate (Annexin-V)” value is “does not shown any effect” with RDM4 (15 μM, up to 72 hrs) and 70% with RDM4 (45 μM, 24 hrs).

Consider `N.N.[Cl][Pt][Cl]` [Cisplatinum, reference compound], for which the “proteic levels of the active fragment of caspase 3 (Western blot)” value with A172 glioblastoma cells was “increasing the proteic levels of the active fragment of caspase 3”. Further, in the assay on A172 cells (10 μM, 24 hours treatment), the “expression of p21 and Bax” value was “induces the expression of p21 and Bax”. Also, the p53 proteic levels result in the assay on A172 cells (6 hrs treatment) is “induce p53”; in the assay on A172 cells (24 hrs treatment) it was “induces the p53 proteic levels”. The “increase in expression of p21 and inhibition of phosphorylation of histone H3” value in the assay on HCT116 cells was “identical for CDR 6 and cisplatinum”.
